{"source": "paper PMC7156458", "about": "“Synthetic biology based construction of biological activity-related library of fungal decalin-containing diterpenoid pyrones” (Nature Communications, 2020)", "target": "Aβ42 (Homo sapiens, UniProt P05067)", "sequence (P05067 672-713)": "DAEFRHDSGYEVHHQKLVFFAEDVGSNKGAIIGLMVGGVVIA", "assay": "Th-T (thioflavin-T) assay of Aβ42 aggregation", "type": "biochemical", "details": "for Th-T fluorescence of Aβ42 with compound, mean of three wells (Fig. 7a source data): concentration 50, unit not given", "data": [{"smiles": "C=C1CC[C@@H]2[C@](C)(CC[C@H]3O[C@H](C=C(C)C)C[C@@]23C)[C@@H]1Cc1c(OC)oc(CO)c(C)c1=O", "note": "[Compound 20]", "values": [{"measurement": "Th-T fluorescence of Aβ42 with compound, mean of three wells (Fig. 7a source data)", "setting": "time-course reading M143", "result": 2.125}, {"measurement": "Th-T fluorescence of Aβ42 with compound, mean of three wells (Fig. 7a source data)", "setting": "time-course reading M144", "result": 2.117}, {"measurement": "Th-T fluorescence of Aβ42 with compound, mean of three wells (Fig. 7a source data)", "setting": "time-course reading M145", "result": 2.122}, {"measurement": "Th-T fluorescence of Aβ42 (sheet Fig. 7a), mean of three wells", "setting": "head suffix _10 (concentration 10), reading M63", "result": 3.458}, {"measurement": "Th-T fluorescence of Aβ42 (sheet Fig. 7a), mean of three wells", "setting": "head suffix _10 (concentration 10), reading M64", "result": 3.444}, {"measurement": "Th-T fluorescence of Aβ42 (sheet Fig. 7a), mean of three wells", "setting": "head suffix _10 (concentration 10), reading M65", "result": 3.449}, {"measurement": "Th-T fluorescence of Aβ42 (sheet Fig. 7a), mean of three wells", "setting": "head suffix _10 (concentration 10), reading M66", "result": 3.444}, {"measurement": "Th-T fluorescence of Aβ42 (sheet Fig. 7a), mean of three wells", "setting": "head suffix _10 (concentration 10), reading M67", "result": 3.437}, {"measurement": "Th-T fluorescence of Aβ42 (sheet Fig. 7a), mean of three wells", "setting": "head suffix _10 (concentration 10), reading M68", "result": 3.439}, {"measurement": "Th-T fluorescence of Aβ42 (sheet Fig. 7a), mean of three wells", "setting": "head suffix _10 (concentration 10), reading M69", "result": 3.4039}, {"measurement": "Th-T fluorescence of Aβ42 (sheet Fig. 7a), mean of three wells", "setting": "head suffix _10 (concentration 10), reading M70", "result": 3.402}, {"measurement": "Th-T fluorescence of Aβ42 (sheet Fig. 7a), mean of three wells", "setting": "head suffix _10 (concentration 10), reading M71", "result": 3.423}, {"measurement": "Th-T fluorescence of Aβ42 (sheet Fig. 7a), mean of three wells", "setting": "head suffix _10 (concentration 10), reading M72", "result": 3.425}, {"measurement": "Th-T fluorescence of Aβ42 (sheet Fig. 7a), mean of three wells", "setting": "head suffix _10 (concentration 10), reading M73", "result": 3.414}, {"measurement": "Th-T fluorescence of Aβ42 (sheet Fig. 7a), mean of three wells", "setting": "head suffix _10 (concentration 10), reading M74", "result": 3.412}, {"measurement": "Th-T fluorescence of Aβ42 (sheet Fig. 7a), mean of three wells", "setting": "head suffix _10 (concentration 10), reading M75", "result": 3.393}, {"measurement": "Th-T fluorescence of Aβ42 (sheet Fig. 7a), mean of three wells", "setting": "head suffix _10 (concentration 10), reading M76", "result": 3.416}, {"measurement": "Th-T fluorescence of Aβ42 (sheet Fig. 7a), mean of three wells", "setting": "head suffix _10 (concentration 10), reading M77", "result": 3.391}, {"measurement": "Th-T fluorescence of Aβ42 (sheet Fig. 7a), mean of three wells", "setting": "head suffix _10 (concentration 10), reading M78", "result": 3.393}, {"measurement": "Th-T fluorescence of Aβ42 (sheet Fig. 7a), mean of three wells", "setting": "head suffix _10 (concentration 10), reading M79", "result": 3.378}, {"measurement": "Th-T fluorescence of Aβ42 (sheet Fig. 7a), mean of three wells", "setting": "head suffix _10 (concentration 10), reading M80", "result": 3.379}, {"measurement": "Th-T fluorescence of Aβ42 (sheet Fig. 7a), mean of three wells", "setting": "head suffix _10 (concentration 10), reading M81", "result": 3.38}, {"measurement": "Th-T fluorescence of Aβ42 (sheet Fig. 7a), mean of three wells", "setting": "head suffix _10 (concentration 10), reading M82", "result": 3.375}, {"measurement": "Th-T fluorescence of Aβ42 (sheet Fig. 7a), mean of three wells", "setting": "head suffix _10 (concentration 10), reading M83", "result": 3.373}, {"measurement": "Th-T fluorescence of Aβ42 (sheet Fig. 7a), mean of three wells", "setting": "head suffix _10 (concentration 10), reading M84", "result": 3.355}, {"measurement": "Th-T fluorescence of Aβ42 (sheet Fig. 7a), mean of three wells", "setting": "head suffix _20 (concentration 20), reading M63", "result": 3.439}, {"measurement": "Th-T fluorescence of Aβ42 (sheet Fig. 7a), mean of three wells", "setting": "head suffix _20 (concentration 20), reading M64", "result": 3.419}, {"measurement": "Th-T fluorescence of Aβ42 (sheet Fig. 7a), mean of three wells", "setting": "head suffix _20 (concentration 20), reading M65", "result": 3.416}, {"measurement": "Th-T fluorescence of Aβ42 (sheet Fig. 7a), mean of three wells", "setting": "head suffix _20 (concentration 20), reading M66", "result": 3.432}, {"measurement": "Th-T fluorescence of Aβ42 (sheet Fig. 7a), mean of three wells", "setting": "head suffix _20 (concentration 20), reading M67", "result": 3.438}, {"measurement": "Th-T fluorescence of Aβ42 (sheet Fig. 7a), mean of three wells", "setting": "head suffix _20 (concentration 20), reading M68", "result": 3.449}, {"measurement": "Th-T fluorescence of Aβ42 (sheet Fig. 7a), mean of three wells", "setting": "head suffix _20 (concentration 20), reading M69", "result": 3.405}, {"measurement": "Th-T fluorescence of Aβ42 (sheet Fig. 7a), mean of three wells", "setting": "head suffix _20 (concentration 20), reading M70", "result": 3.395}, {"measurement": "Th-T fluorescence of Aβ42 (sheet Fig. 7a), mean of three wells", "setting": "head suffix _20 (concentration 20), reading M71", "result": 3.403}, {"measurement": "Th-T fluorescence of Aβ42 (sheet Fig. 7a), mean of three wells", "setting": "head suffix _20 (concentration 20), reading M72", "result": 3.419}, {"measurement": "Th-T fluorescence of Aβ42 (sheet Fig. 7a), mean of three wells", "setting": "head suffix _20 (concentration 20), reading M73", "result": 3.421}, {"measurement": "Th-T fluorescence of Aβ42 (sheet Fig. 7a), mean of three wells", "setting": "head suffix _20 (concentration 20), reading M74", "result": 3.387}, {"measurement": "Th-T fluorescence of Aβ42 (sheet Fig. 7a), mean of three wells", "setting": "head suffix _20 (concentration 20), reading M75", "result": 3.3567}, {"measurement": "Th-T fluorescence of Aβ42 (sheet Fig. 7a), mean of three wells", "setting": "head suffix _20 (concentration 20), reading M76", "result": 3.391}, {"measurement": "Th-T fluorescence of Aβ42 (sheet Fig. 7a), mean of three wells", "setting": "head suffix _20 (concentration 20), reading M77", "result": 3.3972}, {"measurement": "Th-T fluorescence of Aβ42 (sheet Fig. 7a), mean of three wells", "setting": "head suffix _20 (concentration 20), reading M78", "result": 3.402}, {"measurement": "Th-T fluorescence of Aβ42 (sheet Fig. 7a), mean of three wells", "setting": "head suffix _20 (concentration 20), reading M79", "result": 3.362}, {"measurement": "Th-T fluorescence of Aβ42 (sheet Fig. 7a), mean of three wells", "setting": "head suffix _20 (concentration 20), reading M80", "result": 3.347}, {"measurement": "Th-T fluorescence of Aβ42 (sheet Fig. 7a), mean of three wells", "setting": "head suffix _20 (concentration 20), reading M81", "result": 3.353}, {"measurement": "Th-T fluorescence of Aβ42 (sheet Fig. 7a), mean of three wells", "setting": "head suffix _20 (concentration 20), reading M82", "result": 3.387}, {"measurement": "Th-T fluorescence of Aβ42 (sheet Fig. 7a), mean of three wells", "setting": "head suffix _20 (concentration 20), reading M83", "result": 3.377}, {"measurement": "Th-T fluorescence of Aβ42 (sheet Fig. 7a), mean of three wells", "setting": "head suffix _20 (concentration 20), reading M84", "result": 3.32}, {"measurement": "Th-T fluorescence of Aβ42 (sheet Fig. 7a), mean of three wells", "setting": "head suffix _50 (concentration 50), reading M63", "result": 2.073}, {"measurement": "Th-T fluorescence of Aβ42 (sheet Fig. 7a), mean of three wells", "setting": "head suffix _50 (concentration 50), reading M64", "result": 2.076}, {"measurement": "Th-T fluorescence of Aβ42 (sheet Fig. 7a), mean of three wells", "setting": "head suffix _50 (concentration 50), reading M65", "result": 2.0862}, {"measurement": "Th-T fluorescence of Aβ42 (sheet Fig. 7a), mean of three wells", "setting": "head suffix _50 (concentration 50), reading M66", "result": 2.098}, {"measurement": "Th-T fluorescence of Aβ42 (sheet Fig. 7a), mean of three wells", "setting": "head suffix _50 (concentration 50), reading M67", "result": 2.131}, {"measurement": "Th-T fluorescence of Aβ42 (sheet Fig. 7a), mean of three wells", "setting": "head suffix _50 (concentration 50), reading M68", "result": 2.106}, {"measurement": "Th-T fluorescence of Aβ42 (sheet Fig. 7a), mean of three wells", "setting": "head suffix _50 (concentration 50), reading M69", "result": 2.087}, {"measurement": "Th-T fluorescence of Aβ42 (sheet Fig. 7a), mean of three wells", "setting": "head suffix _50 (concentration 50), reading M70", "result": 2.078}, {"measurement": "Th-T fluorescence of Aβ42 (sheet Fig. 7a), mean of three wells", "setting": "head suffix _50 (concentration 50), reading M71", "result": 2.105}, {"measurement": "Th-T fluorescence of Aβ42 (sheet Fig. 7a), mean of three wells", "setting": "head suffix _50 (concentration 50), reading M72", "result": 2.132}]}]}
